In patent publication US20200281897A1, “INDAZOLE DERIVATIVES FOR CANCER TREATMENT” (Servicio Andaluz de Salud, priority 2016, published 2020):

Experiments:
Format in all cases: cell-based, human
myeloma cell lines = assay: MTT cell viability assay, average over all myeloma cell lines; conditions: average over the six myeloma cell lines, MTT, 18 hours; read-out: IC50 average
Description: In vitro studies were carried out using six different human MM cell lines, U266, RPMI8226, MM1S, MM1R, U266-LR7, and RPMI-LR5. For ex vivo assays, human primary cells from healthy donors and MM patients were used (Table 1). Human MM cell lines U266, RPMI8226, and MM1.S were acquired from ATCC and lines U266-LR7, RPMI-LR5, and MM1.R were kindly provided by Dr. Enrique Ocio (Hospital Universitario de Salamanca, Spain). The primary cells were obtained from bone marrow (BM) aspirates or peripheral blood (PB) samples, and the peripheral blood mononuclear cells (PBMCs) were isolated by Ficoll-Hypaque centrifugation and washed twice in phosphate buffered saline (PBS) containing 1% BSA. Hematopoietic stem cells and B and T lymphocytes were isolated from healthy PB donors by positive immunomagnetic separation using human MACS CD34+, CD19+, and CD3+ microbeads, respectively. MM plasma cells were obtained from the bone marrow (BM) of patients with an infiltration of cells of more than 30% (Table 1). The MM plasma cells were identified using CD138+, and were then distinguished from the other cell populations by flow cytometry using a suitable combination of antibodies: anti-human CD64-FITC, CD34-PE, CD56-APC, CD38-APC-H7, and CD45-Pacific Blue antibodies (BD Biosciences, San Jose, Calif.). All the cell lines were cultured in RPMI-1640 supplemented with 10% fetal bovine serum (FBS) and 1% penicillin/streptomycin, as recommended by the supplier. For human primary cells, the concentration of FBS was up to 20%.
The MM cell lines and primary cells were exposed to different doses of indazole compounds, and viability was evaluated at 18, 48, and 72 hours. Pretreatments with the ceramide synthesis inhibitor (FB1), pan-caspase (ZVAD-FMK), and CB antagonists (PGN-8, PGN-37, and PGN-70) were performed for 30 minutes, and then the cells were incubated with indazole compound WIN-55 up to 18 hours. Cell viability was determined using the MTT assay Cell Counting Kit-8 (Dojindo, Kumamoto, Japan) according to the manufacturer's instructions.

U266 [1] = assay: Mitochondrial transmembrane potential analysis (TMRE); conditions: U266, 50 μM, from 15 minutes
Description: Cell lines U266 were exposed to 50 μM of WIN-55 for 15, 30, 45, and 60 minutes. The loss of mitochondrial membrane potential (Aym) was calculated using TRME (tetramethylrhodamine-ethyl-ester-perchlorate) according to the manufacturer's instructions and CCCP (2-[2-(3-chlorophenyl)hydrazinylidene] propanedinitrile) was used as a control to induce the loss of Aym.

HL60 = assay: Western blot and immunocytofluorescence in HL60 cells
Description: The detailed methodology for analyzing mitochondrial membrane potential (APm), Western Blot analysis, and immunocytofluorescence analysis has been described elsewhere 29

[2] = system: granulomonocytes (CD64+) and lymphocytes (CD45+); assay: Ex vivo viability of normal cell subpopulations of patient bone marrow by flow cytometry
Description: In vitro studies were carried out using six different human MM cell lines, U266, RPMI8226, MM1S, MM1R, U266-LR7, and RPMI-LR5. For ex vivo assays, human primary cells from healthy donors and MM patients were used (Table 1). Human MM cell lines U266, RPMI8226, and MM1.S were acquired from ATCC and lines U266-LR7, RPMI-LR5, and MM1.R were kindly provided by Dr. Enrique Ocio (Hospital Universitario de Salamanca, Spain). The primary cells were obtained from bone marrow (BM) aspirates or peripheral blood (PB) samples, and the peripheral blood mononuclear cells (PBMCs) were isolated by Ficoll-Hypaque centrifugation and washed twice in phosphate buffered saline (PBS) containing 1% BSA. […]
The cell viability of the MM cell lines and primary cells from healthy PB donors was also evaluated by flow cytometry using 7-AAD/Annexin V. Patient bone marrow (BM) cells were analyzed using 7-AAD with a combination of monoclonal antibodies against myeloma-associated antigens (anti-CD56-APC, anti-CD45-Pacific Blue, and anti-CD38-APC-H7 [BD Biosciences]) and antibodies for distinguishing the granulomonocytic population (anti-CD64-FITC) and lymphocytic population (anti-CD45-Pacific Blue). The cells were acquired by means of FACSCanto II flow cytometer (BD Biosciences) and analyzed using Infinicyt™ Software (Cytognos, Spain).

U266 [3] = assay: Western blot and immunofluorescence in U266 cells; conditions: U266, 50 μM
Description: The extracts for Western blot were taken after 0, 2, 6, 18, and 24 hours. The cells were lysed according to Gilbert et al., 2002. (J Immunol Methods. 2002, 271:185-201), by adding 2% ASB-14 (Calbiochem, Beeston, United Kingdom) to the isotonic lysis buffer. The protein concentration was determined by Pierce® Microplate BCA Protein Assay kit-Reducing Agent Compatible (Pierce, Rockford, Ill.). The samples were subjected to SDS/PAGE in AnykD precast gels (Bio Rad, Hercules, Calif.) and transferred to PVDF membranes using Trans-Blot® Turbo™ System (Bio-Rad). The membranes were incubated over night at 4° C. with primary antibody in 0.05% Tween 20-Tris buffered saline (TTBS) then with the suitable secondary antibody, and they were subjected to chemiluminescence detection. As a control condition, the cells were treated with DMSO (<0.15%) in RPMI 1640 medium from Gibco (Gaithersburg, Md.).
The antibodies for caspase-2, -8, -9, active caspase-3, -p-Akt (phospho T308), p-Erk (T202+Y204), -p-p38MAPK (phospho T180+Y182), -p-JNK (phospho T183+Y185), -SPT, and the CB1 and CB2 receptors were from Abcam, anti-MCL-1 and -Bcl-xL were from Santa Cruz Biotechnology, anti-PARP was from Cell Signaling Technology, anti-Bax and -Bak were from BD Biosciences. Anti-beta-tubulin was from Sigma-Aldrich. All the horseradish peroxidase (HRP)-conjugated secondary antibodies used were from Jackson ImmunoResearch and produced in a donkey to prevent the possible cross-reactivity when several tests were performed.
The cells treated for 6 hours with indazole compounds were collected and placed on a slide. Immunofluorescence staining was performed as described previously by Vielhaber et al. 2001 (Glycobiology. 2001, 11:451-7) using anti-ceramide as the primary antibody. The ceramide antibody was obtained from Sigma-Aldrich, and the Alexa-488-conjugated secondary antibody was obtained from Abcam. As a control condition, the cells were treated with DMSO (<0.15%) in RPMI 1640 medium from Gibco (Gaithersburg, Md.).

`CS(=O)(=O)O.Cc1c(C(=O)c2cccc3ccccc23)c2cccc3c2n1[C@H](CN1CCOCC1)CO3` [WIN-55, (R)-(+)-[2,3-dihydro-5-methyl-3-(4-morpholinomethyl)-pyrrolo[1,2,3]-1,4-benzoxazin-6-yl]-1-naphthalenylmethanone mesylate] was tested, and the IC50 (myeloma cell lines) was 14.6 µM, the mitochondrial membrane potential (U266 [1]) was “early loss of mitochondrial membrane potential” and the “expression of Bax (immunocytofluorescence)” value (HL60; HL60) was “considerable increase in Bax”. For the same compound, the “caspase activation pattern (Western blot)” value (HL60; HL60, 50 μM, 2, 6, 18 and 24 hours) was “activation of various caspases”, the “cell viability of normal cell subpopulations from patient bone marrow” value ([2]; granulomonocytes (CD64+) and lymphocytes (CD45+), 0-50 μM, 18 hours) was “barely affected” and the “effect on the lymphocyte population (CD45+)” value ([2]; highest dose tested, 50 μM) was “induced an antiproliferative effect”. For the same compound, the “caspase-3 activation (cleaved forms, Western blot)” value (U266 [3]) was “induction of caspase-3 activation”, the “expression of endoplasmic reticulum stress marker proteins CHOP, ATF-4, p-IRE1, XBP-1s” value (U266 [3]) was “slight but sustained decrease” and the “expression of ceramides (immunofluorescence)” value (U266 [3]; 6 hours) was “considerable increase in the expression of ceramides”. The “expression of p-Akt (phospho-T308)” value (U266 [3]; early points in time, decrease at later times) was “significant overexpression of p-Akt” and the “expression level of serine-palmitoyltransferase (SPT)” value (U266 [3]; maximum at 18 hours) was “increased”.
